Laboratory results as given in patent US6372209B1, “Vaginal lactobacillus medicant” (Gyne Logix, Inc., priority 1997, dated 2002).

Key:
[1] = Stability of viability: room temperature and refrigerated storage (plate count, MRS agar); type: physicochemical
Method: (1.5) Stability of viability: Samples of each evaluated strain were retained for shelf-life studies at room temperature and refrigerated storage. At selected time intervals, samples were tested for the number of colony-forming-units using the Plate Count method with MRS agar.
Strain CTV-05 was tested in a gelatin capsule suppository during storage at 55° C., 45° C., 35° C. and at room and refrigeration temperatures. […] Between the fourth and ninth weeks counts dropped to 9.8×10^7 per suppository and have remained at 10^7 for 25 months. […]

[2] = Accelerated shelf-life of the air-dried suppository at 35, 45 and 55° C.; type: physicochemical; settings: for loss of viability: over about 2.3 days
Method: Strain CTV-05 was tested in a gelatin capsule suppository during storage at 55° C., 45° C., 35° C. and at room and refrigeration temperatures. […] Between the fourth and ninth weeks counts dropped to 9.8×10^7 per suppository and have remained at 10^7 for 25 months.
At 35° C., the product lost less than 1 log of viability over about 2.3 days. At 45° C., the product lost about 2 logs of viability over about 2.3 days. At 55° C., the product lost viability rapidly within 0.5 days.

[3] = Cell to preservation matrix ratio: viability counts pre- and post-dry; type: physicochemical; settings: 30 microliter aliquots
Method: Experiments were conducted to determine the preservative capacity of the suspending medium by addition of different amounts of cells of strain CTV-05 per volume of medium. The Lactobacilli were grown anaerobically on 2 inch squares on MRS agar plates. A 2-inch square of agar is the equivalent of 10 ml of broth. The anticipated yield per plate was 2×10^9 CFUs. Inoculated matrix was preserved in aliquots of 30 microliters.

normal, healthy women = assay: Open study: vaginal colonization of healthy women by suppository; type: in vivo, human
From the text: In this open study, a Lactobacillus suppository containing approximately 10^9 viable, H2O2-producing Lactobacillus crispatus CTV-05 was used by 9 women twice daily for three days. All 9 women were free of genital infection at enrollment, and 8 of the 9 women had endogenous Lactobacilli at enrollment.
Since many women are colonized vaginally and rectally by Lactobacilli, the technique, Repetitive Sequence Polymerase Chain Reaction (Rep PCR), was used to “fingerprint” the suppository strain of L. crispatus and thereby distinguish the suppository strain from endogenous strains of Lactobacilli.

[4] = system: women who had bacterial vaginosis; assay: Suppository as treatment for bacterial vaginosis; type: in vivo, human
From the text: In this study, 13 women who had bacterial vaginosis were given Lactobacillus crispatus CTV-05 suppositories twice daily for seven days. The purpose of this study was to evaluate whether Lactobacillus suppositories could be used as a treatment for bacterial vaginosis. Only 1 of 10 women who returned for follow-up was cured of bacterial vaginosis at the one week follow-up visit.

women = assay: Pooled clinical trials with the CTV-05 suppository (Examples 5-7); type: in vivo, human
From the text: The studies presented in Examples 5 6, and 7 have shown that the Lactobacilli of the present invention can be used in a suppository to recolonize the vagina with Lactobacilli. Over fifty women have been included in clinical trials with the Lactobacillus crispatus CTV-05 suppository. […] Furthermore, the present inventors have developed fingerprinting methods which allow the identification of the suppository strain of L. crispatus in human trials.

[5] = system: Candida albicans ATCC 14053 (human blood isolate); assay: Agar overlay zone of inhibition of yeast growth; type: cell-based
Method: (§1) MRS agar was allowed to harden at a 5 mm slant. Lactobacillus crispatus CTV-05 was streaked across the diameter of the plate and was grown for 24, 48 or 72 hours under both anaerobic and ambient atmospheres. Control strains of Lactobacillus jensenii CTV-01, Lactobacillus crispatus CTV-02, Lactobacillus crispatus CTV-03, and Lactobacillus crispatus CTV-04 were grown in the same way. The plates were overlayed with YM agar with 10 mM CNNaS (sodium thiocyanate, previously reported to be an inhibitor of yeast growth) or without CNNaS. The agar overlays were inoculated with one of two strains of Candida albicans ATCC 60193 (cervical isolate) or Candida albicans ATCC 14053 (human blood isolate). Zones of inhibition were measured. […] Therefore, Lactobacillus crispatus CTV-05 inhibits yeast growth in vitro.

[6] = system: Candida albicans ATCC 60193 (cervical isolate); assay: Agar overlay zone of inhibition of yeast growth; type: cell-based
Method: as §1

[7] = 4 plates/5 ml matrix, 24 hr. Growth Period
[8] = 4 plates/5 ml matrix, 48 hr. Growth Period
[9] = 6 plates/5 ml matrix, 24 hr. Growth Period
[10] = 6 plates/5 ml matrix, 48 hr. Growth Period
[11] = 8 plates/5 ml matrix, 24 hr. Growth Period
[12] = 8 plates/5 ml matrix, 48 hr. Growth Period
[13] = 10 plates/5 ml matrix, 24 hr. Growth Period
[14] = 10 plates/5 ml matrix, 48 hr. Growth Period
[15] = Lactobacillus grown anaerobically for 24, 48 or 72 hours
[16] = Lactobacillus grown under ambient atmosphere, with or without CNNaS

Substance: Lactobacillus crispatus CTV-05
- CFUs per Suppository ([1]; Refrigerated (2-8° C.), 1 month): 5.20E+08 CFUs per Suppository
- CFUs per Suppository ([1]; Refrigerated (2-8° C.), 2 months): 2.20E+08 CFUs per Suppository
- CFUs per Suppository ([1]; Refrigerated (2-8° C.), 3 months): 2.30E+08 CFUs per Suppository
- CFUs per Suppository ([1]; Refrigerated (2-8° C.), 5 months): 2.80E+08 CFUs per Suppository
- CFUs per Suppository ([1]; Refrigerated (2-8° C.), 6 months): 1.70E+08 CFUs per Suppository
- CFUs per Suppository ([1]; Refrigerated (2-8° C.), 7 months): 2.60E+08 CFUs per Suppository
- CFUs per Suppository ([1]; Refrigerated (2-8° C.), 9 months): 3.10E+08 CFUs per Suppository
- CFUs per Suppository ([1]; Refrigerated (2-8° C.), 11 months): 2.50E+08 CFUs per Suppository
- CFUs per Suppository ([1]; Refrigerated (2-8° C.), 15 months): 9.20E+07 CFUs per Suppository
- CFUs per Suppository ([1]; Refrigerated (2-8° C.), 18 months): 1.50E+07 CFUs per Suppository
- CFUs per Suppository ([1]; Refrigerated (2-8° C.), 25 months): 5.00E+08 CFUs per Suppository
- CFUs per Suppository ([1]; Room Temperature (25° C. ± 5° C.), 1 month): 1.30E+08 CFUs per Suppository
- CFUs per Suppository ([1]; Room Temperature (25° C. ± 5° C.), 1 week): 3.80E+08 CFUs per Suppository
- CFUs per Suppository ([1]; Room Temperature (25° C. ± 5° C.), 2 months): 9.80E+07 CFUs per Suppository
- CFUs per Suppository ([1]; Room Temperature (25° C. ± 5° C.), 2 weeks): 3.20E+08 CFUs per Suppository
- CFUs per Suppository ([1]; Room Temperature (25° C. ± 5° C.), 3 months): 1.83E+07 CFUs per Suppository
- CFUs per Suppository ([1]; Room Temperature (25° C. ± 5° C.), 3 weeks): 3.05E+08 CFUs per Suppository
- CFUs per Suppository ([1]; Room Temperature (25° C. ± 5° C.), 4 months): 3.25E+07 CFUs per Suppository
- CFUs per Suppository ([1]; Room Temperature (25° C. ± 5° C.), 5 months): 3.80E+07 CFUs per Suppository
- CFUs per Suppository ([1]; Room Temperature (25° C. ± 5° C.), 6 months): 1.70E+07 CFUs per Suppository
- CFUs per Suppository ([1]; Room Temperature (25° C. ± 5° C.), 7 months): 1.60E+07 CFUs per Suppository
- CFUs per Suppository ([1]; Room Temperature (25° C. ± 5° C.), 9 months): 4.70E+07 CFUs per Suppository
- CFUs per Suppository ([1]; Room Temperature (25° C. ± 5° C.), 11 months): 2.80E+07 CFUs per Suppository
- CFUs per Suppository ([1]; Room Temperature (25° C. ± 5° C.), 15 months): 2.20E+06 CFUs per Suppository
- CFUs per Suppository ([1]; Room Temperature (25° C. ± 5° C.), 18 months): 4.70E+06 CFUs per Suppository
- CFUs per Suppository ([1]; Room Temperature (25° C. ± 5° C.), 25 months): 1.60E+07 CFUs per Suppository
- colony counts, stable level ([1]; refrigerated product, for 5 months): 10^8 per suppository
- colony counts after drop ([1]; room temperature, between the fourth and ninth weeks): 9.8×10^7 per suppository
- colony counts, stable level ([1]; room temperature, for 4 weeks): 10^8 per suppository
- colony counts, level maintained ([1]; room temperature, for 25 months): 10^7
- CFU value at which product remained stable after drop from 10^8 at 2 months ([1]; stored at room temperature (25° C. +5° C.), for 25 months): 10^7 CFU
- CFU value at which product was stable ([1]; stored refrigerated (2-8° C.), for 25 months): 10^8 CFU
- loss of viability ([2]; 35° C.): less than 1 log
- loss of viability ([2]; 45° C.): about 2 logs
- time within which viability was rapidly lost ([2]; 55° C.): ≤ 0.5 days
- Actual Yields, Post-dry [3, 7]: 1.1 × 10^7 CFUs
- Actual Yields, Pre-dry [3, 7]: 7.9 × 10^7 CFUs
- Actual Yields, Post-dry [3, 8]: 6.1 × 10^8 CFUs
- Actual Yields, Pre-dry [3, 8]: 6.0 × 10^8 CFUs
- Actual Yields, Post-dry [3, 9]: 2.1 × 10^7 CFUs
- Actual Yields, Pre-dry [3, 9]: 1.9 × 10^8 CFUs
- Actual Yields, Post-dry [3, 10]: 3.0 × 10^8 CFUs
- Actual Yields, Pre-dry [3, 10]: 7.8 × 10^8 CFUs
- Actual Yields, Post-dry [3, 11]: 3.6 × 10^7 CFUs
- Actual Yields, Pre-dry [3, 11]: 6.9 × 10^7 CFUs
- Actual Yields, Post-dry [3, 12]: 4.3 × 10^8 CFUs
- Actual Yields, Pre-dry [3, 12]: 9.8 × 10^8 CFUs
- Actual Yields, Post-dry [3, 13]: 4.0 × 10^7 CFUs
- Actual Yields, Pre-dry [3, 13]: 6.7 × 10^7 CFUs
- Actual Yields, Post-dry [3, 14]: 4.1 × 10^8 CFUs
- Actual Yields, Pre-dry [3, 14]: 1.5 × 10^8 CFUs
- inflammation, microscopically (white blood cells on vaginal smear) (normal, healthy women; 9 women): None of the women had evidence of inflammation
- side effects (normal, healthy women; 9 women): none complained of side effects
- women colonized by the suppository strain (normal, healthy women; 9 women, approximately 10^9 viable cells twice daily for three days, 2-3 days after last capsule): all of the women were colonized
- women remaining colonized (normal, healthy women; 9 women, at 1 month): 8 of 9
- vaginal colonization, Patient 103 (normal, healthy women; four weeks later): still colonized with CTV-05
- vaginal colonization, Patient 102 (normal, healthy women; one month visit): still colonized by L. crispatus CTV-05
- vaginal colonization, Patient 103 (normal, healthy women; one week after use twice daily for 3 days): colonized by CTV-05 as well as by another strain of Lactobacilli
- vaginal colonization, Patient 102 (normal, healthy women; one week visit after use of the suppository): colonized by three strains of Lactobacilli, which included (1) the suppository strain
- vaginal colonization, Patient 102 (normal, healthy women; one year after enrollment): colonized exclusively by the suppository strain
- women successfully colonized by the suppository strain ([4]; suppositories twice daily for seven days, follow-up): 7 of the 10
- women cured of bacterial vaginosis ([4]; suppositories twice daily for seven days, one week follow-up visit): 1 of 10
- side-effects ([4]; twice daily for seven days): None of the women experienced any side-effects
- visual or microscopic evidence of inflammation ([4]; twice daily for seven days): none had either visual or microscopic evidence of inflammation
- women with normal vaginal flora remaining colonized (women; after one month, gelatin capsule inserted into the vagina): greater than 80%
- side effects associated with use (women; over fifty women in clinical trials): None of the women who received the suppository had any side effects
- inhibition of Candida growth [5, 15]: effectively inhibited growth
- inhibition of Candida growth [5, 16]: unable to inhibit
- inhibition of Candida growth [6, 15]: effectively inhibited growth
- inhibition of Candida growth [6, 16]: unable to inhibit
- Zone of Inhibition (in millimeters) ([6]; Organism Growth Time Period 48 hours): 70 to 0 mm
- Zone of Inhibition (in millimeters) ([6]; Organism Growth Time Period 72 hours): 70 to 0 mm
